Where “and” joins values, the source holds several entries; their conditions need not be identical. Identical values can stand only once. Like-named read-outs stand apart in the source and are kept apart here.
How the values were obtained:
[1] = tested on: isolated human PBMCs; assay: eicosanoid release from A23187-stimulated PBMCs (ELISA); type: cell-based; parameters: 6-Keto PGF1a / 12-HETE: unit not given here; details: for LTB4 level, PBMCs / PGE2 level, PBMCs / TxB2 level, PBMCs: A23187, individual replicate; for 6-Keto PGF1a: A23187 stimulated; for IC50: Homo sapiens, PBMC, 0.25 h, 30 µM A23187 15 min
Protocol: In PBMCs, the calcium ionophore A23187 stimulated the release of PGE2, TXB2, LTB4, 6-keto prostaglandin F1α (PGF1α), and 12-HETE.
PBMCs were isolated from buffy coats using Lymphoprep as described by the manufacturer ([…] Technologies, Vancouver, Canada). Red blood cells were lysed and removed using RBC lysis buffer (Roche, Basel, Switzerland) and the remaining cells were resuspended in 10 mL of RPMI-1640 supplemented with 5% FBS. The TC20 automated cell counter (BIO-RAD, Hercules, California, USA) was used to count the number of cells and check the viability by staining with trypan blue (0.4%) (NanoEnTek, Waltham, MA, USA). For experiments, 5 × 10^5 cells were seeded in 0.5 mL in 24 well plates with RPMI medium supplemented with 5% FBS, 0.3 mg/mL glutamine, and 0.1 mg/mL gentamicin. Cells were preincubated with inhibitors for 2 h before incubating with 30 µM Ca^2+ ionophore A23187 for 15 min to activate cPLA2α. After incubation, the supernatant was obtained by centrifugation at 5992 × g for 10 min at 4° and stored at −80 °C until assayed for PGE2, LTB4, TxB2, 6-Keto PGF1α, and 12S-HETE using enzyme-linked immunosorbent assays (ELISAs) (Cayman #514435, Cayman #10009292, Cayman #501020, Cayman #15210, and Enzo Lifesciences #ADI-900-050). After an overnight hybridization, the enzymatic conversion of substrate was read at OD420 nm using a Cytation 5 multimode platereader (Biotek Instruments, Winooski, VT, USA). Standard curves fit using 4-parameter logistic regression in myassays.com were used to calculate eicosanoid concentrations.

[2] = tested on: HL-60 cells; assay: cell viability, resazurin assay, HL-60; type: cell-based, human; details: for cell viability relative to 0 µM = 100 (Figure S7b): listed as AVX420
From the text: Bjørn Tore Gjertsen (University of Bergen, Norway). […] The cell lines were not authenticated.
Figure S7. Sensitivity of cell lines derived from hematological malignancies. a. cell viability expressed as relative light units ( RLU) is plotted for all cell lines in the screen that were de-rived from hematological malignancies. b. corresponding IC50 values calculated by non-linear regression analysis. c. Cell viability assessed by resazurin assays in MV-4-11 and HL-60 cells.
Data were normalized to the vehicle-treated control (100%) and are the mean of 4 biological replicates ±stdev (MV-4-11) and 5 biological replicates ±stdev (HL-60), Non-linear regres- […]

[3] = tested on: Jurkat E6.1 cells; assay: intracellular ROS, ROS-red staining and flow cytometry, Jurkat E6.1; type: cell-based, human; parameters: ROS Negative Cells / ROS Negative Cells (Figure S9 a) / ROS Negative Cells (Figure S9c): unit not given here; details: for ROS Negative Cells (Figure S9 a) / ROS Positive Cells (Figure S9 a): replicates; for ROS Negative Cells (Figure S9 a) / ROS Positive Cells (Figure S9 a) / ROS Negative Cells / ROS Positive Cells: listed as AVX420; for ROS Negative Cells (Figure S9c) / ROS Positive Cells (Figure S9c): rep1, rep2
Protocol: Data are the mean ± stdev of 3 biological replicates. […] Data are the mean ± stdev of 3 biological replicates.
Rather, when combined with AVX420, exogenous AA augmented cell death (Fig. 6e). […] The response occurred within 1 h, peaked at 8–12 h, and preceded the loss of cell viability (Fig. S9a, b).
After treatment, cells were stained with cellular ROS Assay Kit (Cat. No. ab186029; Abcam, Cambridge, United Kingdom) following the manufacturer’s instructions, and ROS-positive cells were quantified by flow cytometry using either the NovoCyte flow cytometer, and Novoexpress Software v1.5.0 from Agilent Technologies (Santa Clara, USA) or the CytoFLEX flow cytometer and CytExpert analysis software v 2.5 from Beckman Coulter (California, United States). An example showing the gating strategy used to assess ROS-Red staining is found in Fig. S9d.

CCCCCCCOc1ccc(OCC(=O)c2nc(C(=O)OC)cs2)cc1 [GK420]
LTB4 level, PBMCs ([1]; 0.5 µM): 429.9 pg/mL and 749.3 pg/mL and 255.6 pg/mL and 605.5 pg/mL
PGE2 level, PBMCs ([1]; 0.5 µM): 169.2 pg/mL and 38.5 pg/mL and 267.8 pg/mL and 309 pg/mL
TxB2 level, PBMCs ([1]; 0.5 µM): 8408.2 pg/mL and 1252.3 pg/mL and 13129.8 pg/mL and 13753.8 pg/mL
6-Keto PGF1a ([1]; 0.5 µM): 21.6 and 26.4
LTB4 level, PBMCs ([1]; 1 µM): 370.9 pg/mL and 289.7 pg/mL and 718.4 pg/mL and 239.1 pg/mL
PGE2 level, PBMCs ([1]; 1 µM): 247.2 pg/mL and 134.2 pg/mL and 36.8 pg/mL and 244.2 pg/mL
TxB2 level, PBMCs ([1]; 1 µM): 11110.6 pg/mL and 8481.1 pg/mL and 1330.2 pg/mL and 14838.7 pg/mL
6-Keto PGF1a ([1]; 1 µM): 16.6 and 27.5
LTB4 level, PBMCs ([1]; 2.5 µM): 144.2 pg/mL and 219 pg/mL and 387.5 pg/mL and 190 pg/mL
PGE2 level, PBMCs ([1]; 2.5 µM): 238.2 pg/mL and 102.2 pg/mL and 66 pg/mL and 196.8 pg/mL
TxB2 level, PBMCs ([1]; 2.5 µM): 7528.6 pg/mL and 7919.2 pg/mL and 1078.1 pg/mL and 10138.3 pg/mL
6-Keto PGF1a ([1]; 2.5 µM): 15.1 and 17.9
LTB4 level, PBMCs ([1]; 5 µM): 107.5 pg/mL and 125.8 pg/mL and 244.5 pg/mL and 111.7 pg/mL
PGE2 level, PBMCs ([1]; 5 µM): 149.4 pg/mL and 71.6 pg/mL and 38.8 pg/mL and 141.2 pg/mL
TxB2 level, PBMCs ([1]; 5 µM): 4591 pg/mL and 3235.3 pg/mL and 764.8 pg/mL and 7035.5 pg/mL
6-Keto PGF1a ([1]; 5 µM): 16.9 and 21.1
LTB4 level, PBMCs ([1]; 10 µM): 64.7 pg/mL and 93.8 pg/mL and 115.3 pg/mL and 64.3 pg/mL
PGE2 level, PBMCs ([1]; 10 µM): 129 pg/mL and 52.7 pg/mL and 30.5 pg/mL and 67 pg/mL
TxB2 level, PBMCs ([1]; 10 µM): 2621.7 pg/mL and 1488.5 pg/mL and 633.4 pg/mL and 3277.7 pg/mL
IC50 ([1]; PBMCs, read-out: IC50 LTB4 inhibition): 0.317 µM
IC50 ([1]; PBMCs, read-out: IC50 PGE2 inhibition): 1.1 µM
IC50 ([1]; PBMCs, read-out: IC50 TXB2 inhibition): 2.2 µM
effect on 6-keto PGF1α and 12-HETE ([1]; PBMCs, A23187, IC50 values could not be calculated): tendency to suppress
cell viability relative to 0 µM = 100 (Figure S7b) ([2]; HL-60, 1 µM, rep1-5): 97.3013 and 90.6778 and 115.865 and 99.353 and 90.3923
cell viability relative to 0 µM = 100 (Figure S7b) ([2]; HL-60, 3 µM, rep1-5): 90.5903 and 85.7617 and 98.8696 and 77.2301 and 87.8872
cell viability relative to 0 µM = 100 (Figure S7b) ([2]; HL-60, 5 µM, rep1-5): 71.3359 and 44.5692 and 65.87 and 61.5884 and 62.96
cell viability relative to 0 µM = 100 (Figure S7b) ([2]; HL-60, 7 µM, rep1-5): 63.2164 and 43.3688 and 54.7108 and 42.3668 and 54.7116
cell viability relative to 0 µM = 100 (Figure S7b) ([2]; HL-60, 10 µM, rep1-5): 36.7957 and 43.3263 and 38.5629 and 49.5907
cell viability relative to 0 µM = 100 (Figure S7b) ([2]; HL-60, 12 µM, rep1-5): 32.4548 and 37.5058 and 42.0594 and 45.299
cell viability relative to 0 µM = 100 (Figure S7b) ([2]; HL-60, 15 µM, rep1-5): 31.4644 and 36.8417 and 35.3195 and 49.7069
cell viability relative to 0 µM = 100 (Figure S7b) ([2]; HL-60, 20 µM, rep1-5): 29.4668 and 34.076 and 29.9279 and 43.7902
viability at 10 µM ([2]; Homo sapiens, HL-60, HL-60, 10 µM, rep1-5, read-out: cell viability relative to 0 µM = 100 (Figure S7b)): 49.4%
viability at 12 µM ([2]; Homo sapiens, HL-60, HL-60, 12 µM, rep1-5, read-out: cell viability relative to 0 µM = 100 (Figure S7b)): 45.2%
viability at 15 µM ([2]; Homo sapiens, HL-60, HL-60, 15 µM, rep1-5, read-out: cell viability relative to 0 µM = 100 (Figure S7b)): 42.5%
viability at 20 µM ([2]; Homo sapiens, HL-60, HL-60, 20 µM, rep1-5, read-out: cell viability relative to 0 µM = 100 (Figure S7b)): 36.3%
IC50 ([2]; Homo sapiens, HL-60, resazurin assay): 4.6 µM
ROS Negative Cells (Figure S9 a) ([3]; 1h): 68 and 69 and 77 and 81
ROS Positive Cells (Figure S9 a) ([3]; 1h): 31 and 23 and 19 and 32
ROS Negative Cells (Figure S9 a) ([3]; 2h): 46 (2×) and 47 (2×) and 51 and 54 and 50 and 48
ROS Positive Cells (Figure S9 a) ([3]; 2h): 53 (2×) and 49 and 46 and 50 and 54 (2×) and 52
ROS Negative Cells (Figure S9 a) ([3]; 4h): 33 (2×) and 32 and 37 and 30 and 29 and 34 (2×)
ROS Positive Cells (Figure S9 a) ([3]; 4h): 67 (2×) and 68 and 63 and 70 and 71 and 66 (2×)
ROS Negative Cells (Figure S9 a) ([3]; 8h): 26 and 27
ROS Positive Cells (Figure S9 a) ([3]; 8h): 73 and 74
ROS Negative Cells (Figure S9 a) ([3]; 12h): 18 and 19 and 21 and 16
ROS Positive Cells (Figure S9 a) ([3]; 12h): 81 and 79 and 84 and 82
ROS Negative Cells (Figure S9 a) ([3]; 16h): 21 and 22 and 18 (2×) and 17 and 19
ROS Positive Cells (Figure S9 a) ([3]; 16h): 78 and 82 (2×) and 83 and 81 and 79
ROS Negative Cells (Figure S9 a) ([3]; 20h): 14 and 13 and 15
ROS Positive Cells (Figure S9 a) ([3]; 20h): 87 and 85 and 86
ROS Negative Cells (Figure S9 a) ([3]; 24h): 13 and 15 and 16
ROS Positive Cells (Figure S9 a) ([3]; 24h): 85 and 84 and 87
ROS Negative Cells (Figure S9c) ([3]; AVX420 0.5 µM + AA 20 µM): 80 and 83
ROS Positive Cells (Figure S9c) ([3]; AVX420 0.5 µM + AA 20 µM): 20 and 17
ROS Negative Cells (Figure S9c) ([3]; AVX420 0.5 µM + Lip 5 µM): 98 and 99
ROS Positive Cells (Figure S9c) ([3]; AVX420 0.5 µM + Lip 5 µM): 2 and 1
ROS Negative Cells (Figure S9c) ([3]; AVX420 0.5 µM): 80 and 76
ROS Positive Cells (Figure S9c) ([3]; AVX420 0.5 µM): 20 and 24
ROS Negative Cells ([3]; Jurkat E6.1, 0.25 µM): 78 and 75 and 60 and 66
ROS Positive Cells ([3]; Jurkat E6.1, 0.25 µM): 22 and 25 and 40 and 34
ROS Negative Cells ([3]; Jurkat E6.1, 0.5 µM): 46 and 45 and 51
ROS Positive Cells ([3]; Jurkat E6.1, 0.5 µM): 54 and 55 and 49
ROS Negative Cells ([3]; Jurkat E6.1, 1 µM): 19 and 21 and 30 and 22
ROS Positive Cells ([3]; Jurkat E6.1, 1 µM): 81 and 79 and 70 and 78
ROS Positive Cells ([3]; Jurkat E6.1, 2 µM): 95 and 93 and 89 and 92
intracellular ROS (iROS) ([3]; Jurkat E6.1, 4 h): dose-dependent increase

From article PMC11696576, “Next generation thiazolyl ketone inhibitors of cytosolic phospholipase A2 α for targeted cancer therapy” (Nature Communications, 2025)
